# Measured values published in publication PMC7369637, “Inhibition of Resistance-Refractory P. falciparum Kinase PKG Delivers Prophylactic, Blood Stage, and Transmission-Blocking Antiplasmodial Activity” (Cell Chemical Biology, 2020).
# Values joined by “and” are separate entries in the source; they are usually repeats but may differ in a detail not shown here. Equal values may be shown once.
# Key:
# Pf Dd2-B2 ABS parasites = test: 72-h asexual blood stage (ABS) growth inhibition assay, Dd2-B2; format: cell-based, Plasmodium falciparum; settings: Dd2-B2 wild-type, 72 h; read-out: Mean IC50, 72 h ABS activity
# Protocol: (§1) Synchronicity was achieved using three rounds of sorbitol treatment on early rings, spaced 48 h apart, followed by magnetic purification of segmented schizonts following the final sorbitol treatment. Parasites were highly synchronous to within a 3 h window of development. Assays were repeated on at least three independent occasions (each with technical duplicates) and statistical significance was assessed using Mann Whitney U tests.
# [1] = test system: recombinant TKL3 kinase domain; test: Radioactive in vitro kinase assay with recombinant TKL3 kinase domain; format: biochemical, Plasmodium falciparum; settings: 20 μM compound
# Protocol: Recombinant proteins were expressed in E. coli as previously described ([Abdi et al., 2010]). […] The cultures were then cooled to 20°C followed by induction of protein expression with 0.5 mM IPTG and further incubation at 20°C, 200 rpm for 16 h. Cultures were harvested by centrifugation at 4000g, 4°C for 10 min. Bacterial pellets were washed once in 1× PBS and were stored at −80°C. Cell pellets were resuspended in ice-cold Lysis Buffer (50 mM sodium phosphate, pH 8.0, 400 mM NaCl, 5 % (w/v) glycerol, 0.1 % (v/v) Triton X-100, 20 mM imidazole, 2 mM β-mercaptoethanol, 1× Roche protease inhibitor cocktail EDTA-free, 1 mg/ml lysozyme). Cells were disrupted by sonication. Protein was bound on a HisTrap HP column and eluted with a linear gradient of increasing imidazole concentrations. The peak fractions as determined by A280 trace were pooled together and further purified by size exclusion chromatography on a S200 gel filtration column equilibrated in 25 mM Tris pH 7.5, 100 mM NaCl, 5 % (w/v) glycerol, 1 mM DTT. Protein was pooled and concentrated. Final concentration was determined using a Bradford assay with a BSA protein standard.
# Kinase assays containing 3 μg of recombinant kinase (WT or mutant) were performed in kinase assay buffer (25 mM Hepes, pH 7.5, 2 mM MnCl2, 10 mM β-glycerophosphate, 10 mM NaF, 25 μM ATP (containing 5 μCi [γ-^32P]-ATP-3000 mCi/mmol (PerkinElmer)), 5 μg substrate myelin basic protein (MBP) and ± 20 μM inhibitor) in a final reaction volume of 20 μl and incubated at 30°C for 30 min. Reactions were stopped by the addition of 5× Laemmli sample buffer and heated to 98°C for 5 min. Proteins were resolved by 4-12 % SDS-PAGE and stained in Coomassie Brilliant Blue. Kinase activity was detected by phosphorimaging. Imaging was performed on a Typhoon 5 Biomolecular imager (GE Healthcare Life Sciences).
# sel. Dd2-B2 TKL3T1268R = test: 72-h ABS assay, MMV030084-selected line; format: cell-based, Plasmodium falciparum
# Protocol: as §1
# The resulting MMV030084-resistant parasites were cloned by limiting dilution ([Baker et al., 2017]) to obtain genetically homogenous cultures for further phenotyping and whole-genome sequencing. A second round of […]. […] Drug susceptibility of resistant lines was assessed using a 72 h ABS assay as described above, and a Mann Whitney U test was applied to assess statistically significant differences.
# AAT cKD line = test: Compound susceptibility assay using cKD lines (72 h, Renilla luciferase); format: cell-based, Plasmodium falciparum; settings: AAT cKD line
# From the text: (§2) To study the interaction between the compounds and PKG (PF3D7_1436600), AAT (PF3D7_1231400), CDPK1 (PF3D7_0217500), TKL3 (PF3D7_1349300), PP1 (PF3D7_1414400), and URP (PF3D7_0808300), cKD lines were generated by fusing the transcripts with RNA aptamers for translation regulation with the TetR/DOZI system ([Ganesan et al., 2016]). The right homology regions (RHR) of each target gene were amplified by PCR, using the primers listed in Table S1 (A), and along with the left homology regions (LHR) were fused to the re-codonized 3'-end region of the gene. Single guide RNA fragments were synthesized using the BioXP™ 3200 System (SGI-DNA; Table S1 (A)) and were cloned into the pSN054 vector ([Nasamu et al., 2019]) to install the C-terminal epitope tags V5 and 2x-hemagglutinin (HA) followed by a 10x RNA aptamer array and the TetR-DOZI expression cassette. This cassette also contained Blasticidin S-deaminase for selection in the parasites and the reporter gene Renilla luciferase (RLuc). The 3'-end of each target was re-codonized to avoid further modifications of the edited locus in the parasite via removal of the PAM site. Donor vector generation was carried out via Gibson assembly, and the final construct sequence was confirmed by restriction digests and Sanger sequencing.
# (§3) Transfection into parasites was carried out by preloading erythrocytes with linearized vectors as described previously ([Deitsch et al., 2001]). Briefly, 50 μg of purified plasmid DNA was mixed with human RBC and subjected to 8 square wave electroporation pulses of 365 V for 1 ms each, separated by 0.1 s in a 0.2 cm cuvette. The plasmid DNA preloaded cells were inoculated with NF54 parasites expressing Cas9 and T7 RNA polymerase, maintained in 500 nM anhydrotetracycline (aTc, Sigma-Aldrich 37919), and drug selection with 2.5 μg/mL of Blasticidin (RPI Corp B12150-0.1) was initiated four days after transfection. Emergence of transfectants was monitored via Giemsa smears and RLuc measurements.
# (§4) Synchronized ring-stage cKD parasites in varying aTc concentrations (high = 50 nM, intermediate = 1.5 nM, low = 1 nM, and no aTc) were distributed into the drug plate. No-drug treatment and treatment with a lethal dose of chloroquine (200 nM) served as reference controls.
# TKL3 cKD line = test: as above; format: cell-based, Plasmodium falciparum; settings: TKL3 cKD line
# From the text: as §2, §3, §4
# URP cKD line = test: as above; format: cell-based, Plasmodium falciparum
# From the text: as §2, §3, §4
# CDPK1 cKD line = test: as above; format: cell-based, Plasmodium falciparum; settings: CDPK1 cKD line
# From the text: as §2, §3, §4
# PP1 cKD line = test: as above; format: cell-based, Plasmodium falciparum
# From the text: as §2, §3, §4
# PKG cKD line = test: as above; format: cell-based, Plasmodium falciparum; settings: PKG cKD line
# From the text: as §2, §3, §4
# [2] = target: putative amino acid transporter (AAT) (PF3D7_1231400) (Plasmodium falciparum, UniProt Q8I5A6); test: Competitive chemoproteomics in Pf lysates (Kinobeads / bead-immobilized compound); format: binding; settings: lysates exposed to 40 μM of the same compound vs vehicle
# Sequence of putative amino acid transporter (AAT) (PF3D7_1231400) (Q8I5A6 entry or part of it): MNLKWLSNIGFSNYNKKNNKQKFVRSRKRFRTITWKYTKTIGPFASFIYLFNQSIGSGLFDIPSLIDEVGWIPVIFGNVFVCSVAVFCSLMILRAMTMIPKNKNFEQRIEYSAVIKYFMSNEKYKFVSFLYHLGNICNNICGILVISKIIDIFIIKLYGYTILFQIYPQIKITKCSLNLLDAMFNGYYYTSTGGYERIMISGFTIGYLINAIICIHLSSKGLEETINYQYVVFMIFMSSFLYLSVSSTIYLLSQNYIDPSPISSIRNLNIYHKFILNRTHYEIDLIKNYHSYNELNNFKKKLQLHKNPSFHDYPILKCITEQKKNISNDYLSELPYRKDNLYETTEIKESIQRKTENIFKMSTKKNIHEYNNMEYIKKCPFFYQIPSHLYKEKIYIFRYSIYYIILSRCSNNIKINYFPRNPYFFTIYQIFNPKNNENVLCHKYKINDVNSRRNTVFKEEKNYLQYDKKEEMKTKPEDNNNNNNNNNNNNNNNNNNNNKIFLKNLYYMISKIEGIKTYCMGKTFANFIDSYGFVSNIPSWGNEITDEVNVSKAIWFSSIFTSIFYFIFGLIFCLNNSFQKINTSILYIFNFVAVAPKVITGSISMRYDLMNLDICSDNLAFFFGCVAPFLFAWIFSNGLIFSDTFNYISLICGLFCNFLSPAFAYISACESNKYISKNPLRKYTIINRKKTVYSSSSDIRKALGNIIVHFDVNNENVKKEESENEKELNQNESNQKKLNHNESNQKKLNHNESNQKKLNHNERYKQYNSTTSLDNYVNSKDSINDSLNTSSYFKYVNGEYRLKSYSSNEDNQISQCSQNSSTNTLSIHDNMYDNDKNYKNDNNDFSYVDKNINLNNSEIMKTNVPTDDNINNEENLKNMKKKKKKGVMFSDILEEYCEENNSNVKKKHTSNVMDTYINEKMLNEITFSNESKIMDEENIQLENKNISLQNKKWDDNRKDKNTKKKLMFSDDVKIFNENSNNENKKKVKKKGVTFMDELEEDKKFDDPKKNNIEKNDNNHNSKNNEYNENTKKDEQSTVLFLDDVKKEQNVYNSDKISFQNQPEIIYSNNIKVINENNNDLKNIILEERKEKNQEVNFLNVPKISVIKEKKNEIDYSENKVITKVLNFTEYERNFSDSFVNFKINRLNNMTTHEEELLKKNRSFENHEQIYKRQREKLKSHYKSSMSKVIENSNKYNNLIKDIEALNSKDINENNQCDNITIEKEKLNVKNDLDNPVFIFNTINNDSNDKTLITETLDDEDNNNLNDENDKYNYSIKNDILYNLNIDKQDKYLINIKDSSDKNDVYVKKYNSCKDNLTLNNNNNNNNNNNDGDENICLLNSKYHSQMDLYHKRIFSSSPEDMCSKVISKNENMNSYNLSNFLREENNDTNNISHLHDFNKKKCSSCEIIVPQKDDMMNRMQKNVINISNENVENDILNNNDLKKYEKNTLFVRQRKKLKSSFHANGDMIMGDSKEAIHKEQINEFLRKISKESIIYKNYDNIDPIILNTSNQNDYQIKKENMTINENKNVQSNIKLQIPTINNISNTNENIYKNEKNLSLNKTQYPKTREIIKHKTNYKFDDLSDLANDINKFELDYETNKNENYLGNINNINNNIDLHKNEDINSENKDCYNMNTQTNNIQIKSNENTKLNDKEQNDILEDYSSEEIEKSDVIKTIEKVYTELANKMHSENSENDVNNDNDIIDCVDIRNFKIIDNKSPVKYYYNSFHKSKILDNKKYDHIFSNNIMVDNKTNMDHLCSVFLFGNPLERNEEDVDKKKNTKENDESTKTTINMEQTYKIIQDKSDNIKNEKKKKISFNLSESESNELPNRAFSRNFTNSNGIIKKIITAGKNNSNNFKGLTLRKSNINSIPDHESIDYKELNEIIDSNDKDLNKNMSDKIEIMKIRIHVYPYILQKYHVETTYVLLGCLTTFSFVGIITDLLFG
# Protocol: (§5) Pf protein extracts were prepared as described elsewhere ([Paquet et al., 2017]). Parasite cultures at the trophozoite stage were harvested, washed twice in RPMI 1640 medium (Gibco), and lysed by the addition of saponin to a final concentration of 0.1% for 5 min at room temperature. Free parasites were sedimented by centrifugation (3500 rpm for 10 min), washed three times with phosphate-buffered saline, and stored at −80°C. Parasites were resuspended in cell lysis buffer (50 mM tris-HCl (pH 7.5), 5% glycerol, 1.5 mM MgCl2, […], 1 mM […], 25 mM sodium fluoride, 0.8% NP-40, EDTA-free protease inhibitor cocktail tablets (Roche Diagnostics), and 1 mM DTT) and disrupted by sonication (Sonics Vibra-Cell) using two 30-s cycles on ice at half-amplitude. After centrifugation (140,000g for 1 h at 4°C), soluble proteins were recovered from the supernatants, and protein concentrations of each sample were estimated using the Lowry-based DC assay (Bio-Rad). Samples were stored at −80°C until use.
# (§6) Kinobeads were prepared by immobilizing Bis-(III) indolyl-maleimide, purvalanol B, staurosporine and CZC8004, and the analogs of PD173955, sunitinib and vandetanib on NHS-activated Sepharose 4 beads (Amersham) ([Bantscheff et al., 2007]). […] The chemoproteomic affinity-capturing experiments were performed as previously described ([Bantscheff et al., 2011]). Briefly, beads were washed and equilibrated in lysis buffer (50 mM Tris-HCl, pH 7.4, 0.4 % Igepal-CA630, 1.5 mM MgCl2, 5 % Glycerol, 150 mM NaCl, 25 mM NaF, 1 mM Na3VO4, 1 mM DTT, and one cOmplete EDTA-free protease inhibitor tablet (Roche) per 25 mL). The beads were incubated at 4°C for 1 h with either 0.1 ml (0.3 mg) Pf blood stage extract or 0.5 mL (2.5 mg) human cell/tissue protein extract (a mixture of HEK-293, K-562, Hep G2 , and placental cells), which was pre-incubated with compound or DMSO (vehicle control). 10 samples were measured in parallel (TMT 10-plex ([Werner et al., 2014])) to generate values for the affinity of the beads to the bound proteins (“depletion” values, 4 samples) and to generate IC50 values (6 samples) in a single experiment. Apparent dissociation constants were determined after accounting for protein depletion by the beads ([Bantscheff et al., 2011]). Beads were transferred to Filter plates (Durapore PVDF membrane, Merck Millipore), washed with lysis buffer, and eluted with SDS sample buffer.
# (§7) Proteins were digested according to a modified single pot solid-phase sample preparation (SP3) protocol ([Hughes et al., 2014]). Peptides were labeled with isobaric mass tags (Thermo Fisher Scientific, Waltham, MA) using 10-plex TMT reagents, enabling relative quantification of 10 conditions in a single experiment ([Werner et al., 2014]). The labeling reactions and LC-MS/MS measurements using Q Exactive Orbitrap or Orbitrap Fusion Lumos mass spectrometers (Thermo Fisher Scientific) were performed as described elsewhere ([Sridharan et al., 2019]). Mascot 2.4 (Matrix Science, Boston, MA) was used for protein identification by using a 10 parts per million mass tolerance for peptide precursors and 20 mD (HCD) mass tolerance for fragment ions. To create the fasta file for mascot searching, all proteins corresponding to the taxonomy ‘Plasmodium falciparum (isolate 3D7)’ were downloaded from Uniprot (release 20170621) and supplemented with common contaminant protein sequences of bovine serum albumin, porcine trypsin and mouse, rat, sheep and dog keratins. To assess the false discovery rate (FDR), “decoy” proteins (reverse of all protein sequences) were created and added to the database, resulting in a database containing a total of 14266 protein sequences, with 50% forward and 50% reverse. For peptide and protein identification of human proteins see ([Sridharan et al., 2019]). […]
# [3] = target: T1, calcium-dependent protein kinase 1 (CDPK1) (PF3D7_0217500) (Plasmodium falciparum, UniProt P62344); test: as above; format: binding; settings: lysates exposed to 40 μM of the same compound vs vehicle
# T1 construct: endogenous in cells; host or cells: P. falciparum asexual blood-stage parasites (trophozoite stage)
# T1 sequence (P62344 whole entry): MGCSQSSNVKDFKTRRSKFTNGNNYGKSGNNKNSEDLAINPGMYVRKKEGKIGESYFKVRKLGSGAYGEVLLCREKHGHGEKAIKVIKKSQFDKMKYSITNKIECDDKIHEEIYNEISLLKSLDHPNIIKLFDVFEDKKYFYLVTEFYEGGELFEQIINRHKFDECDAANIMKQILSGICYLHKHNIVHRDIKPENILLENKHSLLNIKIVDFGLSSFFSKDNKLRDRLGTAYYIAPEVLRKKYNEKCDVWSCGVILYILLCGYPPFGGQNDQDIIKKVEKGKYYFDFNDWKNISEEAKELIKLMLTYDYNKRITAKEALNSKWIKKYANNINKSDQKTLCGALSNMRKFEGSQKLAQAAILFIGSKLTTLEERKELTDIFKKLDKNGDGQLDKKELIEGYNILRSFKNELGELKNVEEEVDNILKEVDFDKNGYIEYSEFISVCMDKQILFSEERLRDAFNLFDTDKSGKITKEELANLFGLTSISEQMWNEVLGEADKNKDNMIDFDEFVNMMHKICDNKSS
# Protocol: as §5, §6, §7
# [4] = target: T2, cGMP-dependent protein kinase (PKG) (PF3D7_1436600) (Plasmodium falciparum, UniProt Q8I719); test: as above; format: binding; settings: lysates exposed to 40 μM of the same compound vs vehicle
# T2 construct: The beads were incubated at 4°C for 1 h with either 0.1 ml (0.3 mg) Pf blood stage extract; endogenous in cells; host or cells: P. falciparum asexual blood-stage parasites (trophozoite stage), saponin-freed and lysed
# T2 sequence (Q8I719 whole entry): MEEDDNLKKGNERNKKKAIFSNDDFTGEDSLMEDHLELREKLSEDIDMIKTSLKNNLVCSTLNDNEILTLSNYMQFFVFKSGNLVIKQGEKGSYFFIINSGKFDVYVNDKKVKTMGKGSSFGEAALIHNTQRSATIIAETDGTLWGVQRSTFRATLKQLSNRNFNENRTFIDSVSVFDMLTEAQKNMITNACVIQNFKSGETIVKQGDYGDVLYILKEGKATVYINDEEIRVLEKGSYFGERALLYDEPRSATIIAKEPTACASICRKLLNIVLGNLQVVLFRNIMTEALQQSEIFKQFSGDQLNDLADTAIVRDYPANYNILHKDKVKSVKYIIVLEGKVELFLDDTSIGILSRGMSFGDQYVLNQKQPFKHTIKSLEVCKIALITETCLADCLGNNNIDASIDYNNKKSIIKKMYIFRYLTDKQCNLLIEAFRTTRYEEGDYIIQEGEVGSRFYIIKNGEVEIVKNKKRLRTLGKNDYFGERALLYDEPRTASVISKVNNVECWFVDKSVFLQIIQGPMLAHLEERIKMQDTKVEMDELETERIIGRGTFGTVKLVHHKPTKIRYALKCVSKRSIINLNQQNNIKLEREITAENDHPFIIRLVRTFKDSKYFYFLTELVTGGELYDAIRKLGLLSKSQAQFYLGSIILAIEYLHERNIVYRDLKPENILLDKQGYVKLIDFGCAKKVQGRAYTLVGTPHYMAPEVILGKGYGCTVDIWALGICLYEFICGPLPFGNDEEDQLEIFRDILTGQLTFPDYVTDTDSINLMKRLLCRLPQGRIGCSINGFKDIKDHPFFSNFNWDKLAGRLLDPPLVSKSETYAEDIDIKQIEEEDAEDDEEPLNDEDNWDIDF
# Protocol: Parasite cultures at the trophozoite stage were harvested, washed twice in RPMI 1640 medium (Gibco), and lysed by the addition of saponin to a final concentration of 0.1% for 5 min at room temperature. Free parasites were sedimented by centrifugation (3500 rpm for 10 min), washed three times with phosphate-buffered saline, and stored at −80°C. Parasites were resuspended in cell lysis buffer (50 mM tris-HCl (pH 7.5), 5% glycerol, 1.5 mM MgCl2, 1.5 mM NaCl, 1 mM Na3PO4, 25 mM sodium fluoride, 0.8% NP-40, EDTA-free protease inhibitor cocktail tablets (Roche Diagnostics), and 1 mM DTT) and disrupted by sonication (Sonics Vibra-Cell) using two 30-s cycles on ice at half-amplitude. […]
# Kinobeads were prepared by immobilizing Bis-(III) indolyl-maleimide, purvalanol B, staurosporine and CZC8004, and the analogs of PD173955, sunitinib and vandetanib on NHS-activated Sepharose 4 beads (Amersham) ([Bantscheff et al., 2007]). […] 10 samples were measured in parallel (TMT 10-plex ([Werner et al., 2014])) to generate values for the affinity of the beads to the bound proteins (“depletion” values, 4 samples) and to generate IC50 values (6 samples) in a single experiment. Apparent dissociation constants were determined after accounting for protein depletion by the beads ([Bantscheff et al., 2011]). […]
Structure (SMILES),IC50 (Pf Dd2-B2 ABS parasites),Reduction in TKL3 kinase activity [1],IC50 (sel. Dd2-B2 TKL3T1268R) [µM],also measured
CC(C)(CN)c1nc(-c2ccc(Cl)c(O)c2)c(-c2ccnc(N)n2)[nH]1 [MMV030734],0.065 µM and 0.0653 µM,no reduction,0.197,"IC50 (AAT cKD line; Control, [aTc] used 50.0): 0.0426 µM; IC50 (AAT cKD line; KD, [aTc] used 0.0): 0.0185 µM; IC50 (TKL3 cKD line; Control, [aTc] used 50.0): 0.0375 µM; IC50 (TKL3 cKD line; KD, [aTc] used 0.0): 0.0808 µM; IC50 (URP cKD line; Control, [aTc] used 50.0): 0.034 µM; IC50 (URP cKD line; KD, [aTc] used 0.0): 0.0445 µM; IC50 (CDPK1 cKD line; Control, [aTc] used 50.0): 0.0211 µM; IC50 (CDPK1 cKD line; KD, [aTc] used 1.0): 0.018 µM; IC50 (PP1 cKD line; Control, [aTc] used 50.0): 0.0295 µM; IC50 (PP1 cKD line; KD, [aTc] used 1.5): 0.0367 µM; IC50 (PKG cKD line; Control, [aTc] used 50.0): 0.0208 µM; IC50 (PKG cKD line; KD, [aTc] used 1.0): 0.0084 µM"
CC(C)(C)CNCC(C)(C)c1nc(-c2ccc(Cl)c(O)c2)c(-c2ccncc2)[nH]1 [TCMDC-140549],0.21 µM,,0.287,
CC(C)(CN)c1nc(-c2ccc(Br)c(O)c2)c(-c2ccncc2)[nH]1 [TCMDC-140680],0.0859 µM,,0.249,
CN1CCC=C(C(=O)NCC(C)(C)c2nc(-c3ccc(Cl)c(O)c3)c(-c3ccncc3)[nH]2)C1 [TCMDC-140700],0.395 µM,,1.19,
CNCC(C)(C)c1nc(-c2ccc(Cl)c(O)c2)c(-c2ccncc2)[nH]1.Cl [TCMDC-140762],0.187 µM,no reduction,0.443,
CC(C)(CNC(=O)[C@H]1CCCN1)c1nc(-c2ccc(Cl)c(O)c2)c(-c2ccncc2)[nH]1 [TCMDC-141060],0.18 µM,,0.59,
CC(C)(CNC(=O)[C@H]1CCCCN1)c1nc(-c2ccc(Cl)c(O)c2)c(-c2ccncc2)[nH]1 [TCMDC-141070],0.186 µM,,0.717,
CC(C)(CNC(=O)[C@@H]1CCCCN1)c1nc(-c2ccc(Cl)c(O)c2)c(-c2ccncc2)[nH]1.Cl [TCMDC-141079],0.25 µM,no reduction,0.771,
Cl.NCC1(c2nc(-c3ccc(Cl)c(O)c3)c(-c3ccncc3)[nH]2)CCCCC1 [TCMDC-141154],0.14 µM,,0.369,AAT pull-down by bead-bound compound [2]: pulled down; CDPK1 pull-down by bead-bound compound [3]: pulled down; PKG pull-down by bead-bound compound [4]: pulled down
